# Measurements taken from paper PMC9024893, “1,2,4-Trioxolane and 1,2,4,5-Tetraoxane Endoperoxides against Old-World Leishmania Parasites: In Vitro Activity and Mode of Action” (Pharmaceuticals, 2022).
# How the values were obtained:
# [1] = tested on: L. donovani BD14 promastigotes; test: Promastigotes susceptibility assay (MTT), L. donovani; assay type: cell-based; details: Leishmania donovani; 48 h incubation, MTT; read-out: IC50 ± SD, L. donovani promastigotes
# Description: (§1) Promastigote forms of strains of L. infantum (MHOM/PT/1988/IMT151) and L. donovani (MHOM/BD/2006/BD14) were cultured at 24 °C ± 1 °C in M199 medium (Sigma) supplemented with 20% foetal bovine serum (FBS, Sigma) and 1% penicillin-streptomycin (Sigma). L. infantum strain belongs to IHMT, Portugal cryobank collection and the L. donovani strain was kindly provided by Dr. Katrin Kuhls, Technical University of Applied Sciences Wildau, Germany. Promastigotes used for the experiments had 7 to 12 in vitro passages in culture after isolation from mice, in order to keep virulence, and were used when the stationary phase of growth was reached (day 5 to 6), corresponding to the highest promastigotes density.
# (§2) For the determination of the antileishmanial activity and IC50, promastigotes of L. infantum and L. donovani were plated in 96-well flat bottom culture plates at a concentration of 5 × 10^6 parasites/mL and incubated with six serial concentrations of each compound (Table 3), in four replicates, including the control drugs, amphotericin B, miltefosine and pentamidine. One untreated control (parasites with M199 medium plus 0.5% DMSO as vehicle solution) and one blank (M199 medium alone) were also plated out in quadruplicate. After 48 h incubation at 24 °C ± 1 °C, the inhibitory activity of the compounds was evaluated using the MTT, as previously described, with an additional 4 h incubation at 36 °C. Results were expressed in terms of percentage of parasite viability relative to nontreated control and IC50 was calculated fitting the data as a non-linear regression with variable slope using a dose-response inhibitory model, in the GraphPad Prism V 8.0 program. Each compound was tested in three independent assays. […]
# [2] = tested on: L. infantum IMT151 promastigotes; test: Promastigotes susceptibility assay (MTT), L. infantum; assay type: cell-based; details: Leishmania infantum; 48 h incubation, MTT; read-out: IC50 ± SD, L. infantum promastigotes
# Description: as §1, §2
# [3] = tested on: L. infantum promastigotes; test: Flow cytometry analysis of mitochondrial membrane potential (JC-1); assay type: cell-based, Leishmania infantum; details: 24 h
# Description: (§3) The L. infantum strain (MHOM/PT/1988/IMT151) was chosen for the cytometry analysis and promastigotes at a concentration of 1 × 10^7 parasites/mL were tested against the three compounds evaluated in the intracellular amastigotes assay (LC132, LC137 and LC138). Flow cytometry analysis were performed in a CytoFlex flow cytometer (Beckman Coulter), at an excitation wavelength of 488 nm (blue laser). Data acquisition were collected and registered using channels FL1 (flurescein isothiocyanate, FITC) with a BP filter (525 ± 40 nm) for Fluorescein and FL2 (IP) with a BP filter (570 ± 20 nm) for propidium iodide (PI) and 10,000 total events per sample were analysed using CytExpert v2.0.0.153 software. Samples were analysed in triplicates and two to three independent experiments were performed. Values are expressed as a percentage of cells for a given marker, relatively to the number of cells analysed ± standard error of mean (SEM).
# Mitochondrial damage was evaluated through the analysis of the mitochondrial membrane potential with MitoProbe™ JC-1 Assay Kit for Flow Cytometry (Molecular Probes, Invitrogen). Treated L. infantum promastigotes were incubated with IC50 and 2 × IC50 of the tested compounds and amphotericin B for 24 h, at 24 °C ± 1 °C. […] Cells were analysed by flow cytometry. […]
# [4] = tested on: L. infantum promastigotes; test: Flow cytometry detection of reactive oxygen species (CM-H2DCFDA); assay type: cell-based, Leishmania infantum; details: 2 × IC50, 5 h
# Description: as §3
# For the detection of reactive oxygen species (ROS), a cell permeable probe CM-H2DCFDA (5 µg/mL Molecular Probes, Invitrogen) was used. Briefly, promastigotes were incubated with IC50 and 2 × IC50 of the tested compounds and amphotericin B for 5 h and 24 h, at 24 °C. […] Parasites were resuspended in normal medium (M199 medium) and fluorescence was measured by flow cytometry (blue laser), and the signals registered in the FL1/FITC channel.
# [5] = tested on: L. infantum promastigotes; test: Promastigotes DNA fragmentation (agarose gel); assay type: cell-based, Leishmania infantum; details: IC50 concentrations, 24 h
# Description: 2 mM H2O2 was used as DNA damage inductor and non-treated cells were used as control. After centrifugation (10 min, 800× g) DNA was extracted using a commercial extraction kit (High Template DNA Preparation Kit, Roche, Germany), according to the manufacturer’s instructions.
Structure (SMILES),IC50 [1] [µM],IC50 [2] [µM],population percentage of JC-1 aggregates ([3]; 2 × IC50 concentration) [%],population percentage of JC-1 aggregates ([3]; IC50 concentration) [%],"ROS levels (FITC+), early phase of exposure [4]",genomic DNA fragmentation [5]
"C[C@@H]1[C@H](O)[C@@H](C)/C=C/C=C/C=C/C=C/C=C/C=C/C=C/[C@H](O[C@@H]2O[C@H](C)[C@@H](O)[C@H](N)[C@@H]2O)C[C@@H]2O[C@](O)(C[C@@H](O)C[C@@H](O)[C@H](O)CC[C@@H](O)C[C@@H](O)CC(=O)O[C@H]1C)C[C@H](O)[C@H]2C(=O)O [AmB, amphotericin B, reference compound]",0.3,0.2,69.1,64.9,,
CCOC(=O)C1CCC2(CC1)OOC1(OO2)C2CC3CC(C2)CC1C3 (centres unmarked) [LC138],240 ± 34.8,125 ± 1.6,,,slight increase,did not produce DNA fragmentation
